≈ marks a conversion by molar mass, not a printed value. Like-named read-outs stand apart in the source and are kept apart here. Positions of bridges follow the written chain, without caps; N, C: chain ends. Residues, ends and D or L forms follow the SMILES beside them. No end group written: not given here.
Assays:
Fusarium (F. solani) = test: MIC, CLSI M27/M38, half-strength potato dextrose broth; assay type: cell-based; details: Fusarium F4 (F. solani); Table 8
Description: (§1) MICs were determined at 24-72 hours.

Fusarium (F. oxysporum) = test: as above; assay type: cell-based; details: Table 8
Description: as §1

B. cinerea = test: MIC antifungal assay in SFM culture media (with or without added salts); assay type: cell-based, Botrytis cinerea; details: for antifungal activity relative to the wild-type GMA4C_AC control, B. cinerea: in vitro, low cationic conditions
F. graminearum = assay type: cell-based, Fusarium graminearum; details: in vitro, low cationic conditions
Aspergillus fumigatus = details: for MIC values (μg/ml) 100%: Aspergillus fumigatus AF293, Table 8
C. parapsilosis = test: MIC, CLSI M27/M38, half-strength potato dextrose broth; assay type: cell-based, Candida parapsilosis; details: C. parapsilosis ATCC 22019; Table 8
Description: as §1

Candida albicans = details: for MIC values (μg/ml) 100%: Table 8
Candida auris = details: for MIC values (μg/ml) 100%: Table 8
Coccidioides sp. = assay type: cell-based; details: Table 8
[1] = system: Tricophyton metagrophytes; test: MIC against human nail pathogens; details: isolate 26103; Table 13
Tricophyton rubrum = test: MIC against human nail pathogens; details: isolate 23014; Table 13
F. oxysporum = test: MIC antifungal assay in SFM culture media; assay type: cell-based; details: in vitro, low cationic conditions
P. capsici [2] = test: MIC antifungal assay in SFM culture media; assay type: cell-based; details: in vitro, low cationic conditions
C. albicans = test: Peptide or protein/Fluconazole combination MIC and FICI; details: combination with Fluconazole
L. monocytogenes F5244 = test: Antibacterial growth inhibition in Mueller-Hinton media (OD600); assay type: cell-based, Listeria monocytogens; details: 37° C. overnight
[3] = system: Enterotoxigenic E. coli-F4; test: as above; assay type: cell-based; details: 37° C. overnight
Description: Salmonella typhimurium var. Copenhagen, Enterotoxigenic E. coli-F4 and Listeria monocytogens (F5244) strains were grown overnight on an LB agar plate at 37_C. A small number of bacteria was scraped from the plate and added to Mueller-Hinton (MH) growth media and grown to log phase. Cells were diluted to 1-3×10^6 CFU/mL and 50 μl were added to each well in a polypropylene 96-well plate. Synthesized peptide GMA4C_V1A was diluted into 0.2% BSA, 0.01% acetic acid solution and added to the concentration of 0.2, 0.4, 0.80, 1.6, 3.25, 7.5, 15, 30 and 60 and 120 µM. Then, 50 μl of each peptide solution was added to 50 μl of bacterial cells. Plates were parafilmed and incubated at 37° C. overnight. The concentrations at which bacterial growth inhibition was determined based on the OD600 nm value at each concentration relative to the OD600 nm value of MH medium alone and that of bacterial growth in MH medium without any peptide.

P. capsici [4] = test: Disease symptom reduction on tomato leaves; assay type: in vivo; details: compared with GMA4C_AC
Source text: Antifungal activity in planta.

[5] = system: Salmonella typhimurium var. Copenhagen; test: Antibacterial growth inhibition in Mueller-Hinton media (OD600); assay type: cell-based; details: 37° C. overnight

Row | Compound | antifungal activity relative to the wild-type GMA4C_AC control, B. cinerea (B. cinerea) | antifungal activity relative to the wild-type GMA4C_AC control, F. graminearum (F. graminearum) | MIC values (μg/ml) 100% (Aspergillus fumigatus) | MIC values (μg/ml) 100% (C. parapsilosis) | MIC values (μg/ml) 100% (Candida albicans; Candida albicans ATCC 90028) | MIC values (μg/ml) 100% (Candida albicans; Candida albicans CA3) | MIC values (μg/ml) 100% (Candida albicans; Candida albicans SC5314) | MIC values (μg/ml) 100% (Candida auris; Candida auris DI17-46) | MIC values (μg/ml) 100% (Candida auris; Candida auris DI17-47) | MIC values (μg/ml) 100% (Candida auris; Candida auris DI17-48) | MIC values (μg/ml) 100% (Coccidioides sp.; Coccidioides sp. Cocci1) | MIC values (μg/ml) 100% (Coccidioides sp.; Coccidioides sp. Cocci2) | MIC values (μg/ml) 100% (Coccidioides sp.; Coccidioides sp. DI17-143) | antifungal activity relative to the wild-type GMA4C_AC control, F. oxysporum (F. oxysporum) | antifungal activity relative to the wild-type GMA4C_AC control, P. capsici (P. capsici [2]) | other results
1 | CC[C@H](C)[C@H](NC(=O)[C@H](CCCNC(=N)N)NC(=O)[C@@H](NC(=O)[C@H](CS)NC(=O)[C@H](Cc1ccccc1)NC(=O)[C@H](CS)NC(=O)[C@H](CCCNC(=N)N)NC(=O)[C@H](CCCNC(=N)N)NC(=O)[C@H](CCCNC(=N)N)NC(=O)[C@H](Cc1ccccc1)NC(=O)CNC(=O)[C@H](CCCNC(=N)N)NC(=O)[C@H](CS)NC(=O)[C@H](CCCNC(=N)N)NC(=O)CNC(=O)CN)[C@@H](C)O)C(=O)N[C@@H](CS)C(N)=O [GMA4C_V2A] (H-GGRCRGFRRRCFCTRIC-NH2; N-terminus assumed) | two-fold reduction | two-fold reduction | 32 µg/mL (≈ 15.6 µM) | 8 µg/mL (≈ 3.91 µM) | 16 µg/mL (≈ 7.82 µM) | 16 µg/mL (≈ 7.82 µM) | 16 µg/mL (≈ 7.82 µM) | 16 µg/mL (≈ 7.82 µM) | 16 µg/mL (≈ 7.82 µM) | 16 µg/mL (≈ 7.82 µM) | 8 µg/mL (≈ 3.91 µM) | 16 µg/mL (≈ 7.82 µM) | 16 µg/mL (≈ 7.82 µM) |  |  | MIC values (μg/ml) 100% (Fusarium (F. solani)): 8 µg/mL (≈ 3.91 µM); MIC values (μg/ml) 100% (Fusarium (F. oxysporum); Fusarium F1 (F. oxysporum)): 8 µg/mL (≈ 3.91 µM); MIC values (μg/ml) 100% (Fusarium (F. oxysporum); Fusarium F2 (F. oxysporum)): 16 µg/mL (≈ 7.82 µM)
2 | OeDef1_V3: OeDef1 variant, printed with SEQ ID NO: 769 in Table 13 (GACLKNRHSKHYGWFWYYRHCY-NH2; disulfide 3-21 (inferred)) |  |  |  |  |  |  |  |  |  |  |  |  |  |  |  | MIC in μM Tricophyton metagrophytes (26103) [1]: 4.0 µM; MIC in μM Tricophyton rubrum (23014) (Tricophyton rubrum): 4.0 µM; MIC in μM Aspergillus fumigatus (36843) (Aspergillus fumigatus; isolate 36843, Table 13): >7.9 µM
3 | CC[C@H](C)[C@H](NC(=O)[C@H](CCCNC(=N)N)NC(=O)[C@@H](NC(=O)[C@@H](NC(=O)[C@H](Cc1ccccc1)NC(=O)[C@@H](NC(=O)[C@H](CCCNC(=N)N)NC(=O)[C@H](CCCNC(=N)N)NC(=O)[C@H](CCCNC(=N)N)NC(=O)[C@H](Cc1ccccc1)NC(=O)CNC(=O)[C@H](CCCNC(=N)N)NC(=O)[C@H](CS)NC(=O)[C@H](CCCNC(=N)N)NC(=O)CNC(=O)CN)C(C)C)C(C)C)[C@@H](C)O)C(=O)N[C@@H](CS)C(N)=O [GMA4C_V3A] (H-GGRCRGFRRRVFVTRIC-NH2; N-terminus assumed) | equivalent | equivalent |  |  |  |  |  |  |  |  |  |  |  | equivalent | equivalent | MIC in μM Aspergillus fumigatus (36843) (Aspergillus fumigatus): 11.2 µM (≈ 22.8 µg/mL); Candida albicans (33795) MIC (Candida albicans): 2.8 µM; Candida auris (38883) MIC (Candida auris): 5.6 µM; Interpretation (C. albicans): Conclusion: GMA4C_v3 shows synergistic enhancement of antifungal activity against drug resistant C. albicans in combination with Fluconazole
4 | CC[C@H](C)[C@H](NC(=O)[C@H](CCCNC(=N)N)NC(=O)[C@@H](NC(=O)[C@H](CS)NC(=O)[C@H](Cc1ccccc1)NC(=O)[C@H](CS)NC(=O)[C@H](CCCNC(=N)N)NC(=O)[C@H](CCCNC(=N)N)NC(=O)[C@H](CCCNC(=N)N)NC(=O)[C@H](Cc1ccccc1)NC(=O)CNC(=O)[C@H](CCCCN)NC(=O)[C@H](CS)NC(=O)[C@H](CCCNC(=N)N)NC(=O)CNC(=O)CN)[C@@H](C)O)C(=O)N[C@@H](CS)C(N)=O [GMA4C_V1A] (H-GGRCKGFRRRCFCTRIC-NH2; N-terminus assumed) | equivalent | equivalent | 32 µg/mL (≈ 15.9 µM) | 4 µg/mL (≈ 1.98 µM) | 8 µg/mL (≈ 3.96 µM) | 8 µg/mL (≈ 3.96 µM) | 8 µg/mL (≈ 3.96 µM) | 8 µg/mL (≈ 3.96 µM) | 8 µg/mL (≈ 3.96 µM) | 8 µg/mL (≈ 3.96 µM) | 8 µg/mL (≈ 3.96 µM) | 4 µg/mL (≈ 1.98 µM) | 8 µg/mL (≈ 3.96 µM) | equivalent | equivalent | fungal growth inhibition at 6 μM (B. cinerea; B. cinerea, in presence of 2 mM CaCl2, 6 μM): inhibit fungal growth; potency of activity relative to GMA4C_AC (B. cinerea; B. cinerea, in presence of 100 mM NaCl or 100 mM KCl): 2 fold; Concentrations (in μM) at which growth inhibition was observed, L. monocytogenes F5244 (L. monocytogenes F5244): 15 to 30 µM; Concentrations (in μM) at which growth inhibition was observed, Enterotoxigenic E. coli-F4 [3]: 7.5 to 60 µM; reducing disease symptoms caused by P. capsici (P. capsici [4]): more effective; Concentrations (in μM) at which growth inhibition was observed, S. Typhimurium var. Copenhagen [5]: 15 to 60 µM
